In patent US20120022078A1, “ARYL INDOLE DERIVATIVES” (MSD K.K., priority 2010, published 2012):

What follows are molecules tested against T1, human QRFP receptor (GPR103) (Homo sapiens, UniProt Q96P65) (assay: QRFP43 binding inhibition test ([125I]QRFP43, membranes of GPR103-expressing CHO-K1 cells)). Settings: membrane specimen from QRFP receptor (GPR103) expressing cells, 25° C., 1 hour, 20,000 cpm [125I]QRFP43; read-out: IC50 (50% inhibition concentration for the specific [125I] QRFP43 binding).
T1 construct: expressed in transfected cells; host or cells: NFAT β-Lactamase CHO-K1 host cells (Aurora); membrane specimen
T1 sequence (Q96P65 1-431): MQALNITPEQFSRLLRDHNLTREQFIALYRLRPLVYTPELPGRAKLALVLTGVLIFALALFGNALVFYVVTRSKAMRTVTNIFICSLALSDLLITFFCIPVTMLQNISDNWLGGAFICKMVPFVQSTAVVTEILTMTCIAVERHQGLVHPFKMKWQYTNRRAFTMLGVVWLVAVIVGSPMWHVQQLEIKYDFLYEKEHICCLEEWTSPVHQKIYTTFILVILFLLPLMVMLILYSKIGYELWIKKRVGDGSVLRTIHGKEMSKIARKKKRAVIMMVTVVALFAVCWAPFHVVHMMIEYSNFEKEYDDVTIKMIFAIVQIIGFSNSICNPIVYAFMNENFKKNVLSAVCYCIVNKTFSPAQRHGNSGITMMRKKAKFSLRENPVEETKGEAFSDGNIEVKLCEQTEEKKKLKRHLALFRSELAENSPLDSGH
Source text: The cDNA sequence [Accession No. NM_198179] that codes for human QRFP receptor (GPR103) was cloned into an expression vector pEF1V5-HisB (Invitrogen). The expression vector so prepared was transfected into NFAT β-Lactamase CHO-K1 host cells (Aurora) to obtain QRFP receptor (GPR103) expressing cells, using the cationic lipid method [see Proceedings of the National Academy of Sciences of the United States of America, Vol. 84, p. 7413 (1987)].
The membrane specimen prepared from the QRFP receptor (GPR103) expressing cells was incubated at 25° C. for 1 hour with a test compound and 20,000 cpm [^125I ] QRFP43 (PerkinElmer, Inc.) in an assay buffer (50 mM Tris-HCl, 1 mM EDTA, and 0.1% BSA, pH 7.4), followed by filtration using a glass filter GF/C. After washing with a 50 mM Tris-HCl (containing 2 mM EDTA, 10 mM MgCl2, and 0.04% Tween-20) buffer at pH 7.4, the radioactivity on the glass filter was determined using a gamma counter. Non-specific binding was measured in the presence of 1 μM peptide QRFP43, and 50% inhibition concentration (IC50 value) of the test compound for the specific [^125I] QRFP43 binding was determined [see Endocrinology, Vol. 131, p. 2090 (1992)].

| SMILES | IC50 [nM] |
| --- | --- |
| CN1CCN(Cc2cnc(-c3cc4ccccc4n3C)s2)CC1 [Example 1, 1-Methyl-2-{5-[(4-methylpiperazin-1-yl)methyl]-1,3-thiazol-2-yl}-1H-indole] | 49.8 |
| CN1CCN(Cc2cnc(F)c(-c3cc4ccccc4n3C)c2)CC1 [Example 4] | 52.5 |
| CN1CCN(Cc2cncc(-c3cc4ccccc4n3C)c2)CC1 [Example 5, 1-Methyl-2-{5-[(4-methylpiperazin-1-yl)methyl]pyridin-3-yl}-1H-indole] | 111 |

These reach a lower IC50. Values come first.

| IC50 [nM] | SMILES |
| --- | --- |
| 48.3 | CN1CCN(Cc2ccc(F)c(-c3cc4ccccc4n3C)c2)CC1 [Example 3, 2-{2-Fluoro-5-[(4-methylpiperazin-1-yl)methyl]phenyl}-1-methyl-1H-indole] |
| 33.1 | CN1CCN(Cc2cc(-c3cc4ccccc4n3C)ncc2F)CC1 [Example 2] |
